{"source": "DBAASP", "assay_in_all_cases": "≥ marks a high value that may be exact or a test limit, other limits are often not marked, values filed in µg/mL are converted to µM", "key": {"[1]": {"system": "Pseudomonas aeruginosa ATCC 27853"}, "Candida albicans": {"system": "Candida albicans"}, "[2]": {"system": "Staphylococcus aureus ATCC 49476"}, "Staphylococcus aureus MR": {"system": "Staphylococcus aureus MR"}, "[3]": {"system": "Streptococcus pneumoniae ATCC 700677"}, "[4]": {"system": "Escherichia coli ATCC 25922"}, "[5]": {"system": "Candida albicans ATCC 90028"}, "[6]": {"system": "Bacillus megaterium ATCC 13632"}, "[7]": {"system": "Acinetobacter baumannii ATCC 19606"}, "[8]": {"system": "Klebsiella pneumoniae ATCC 700603"}, "[9]": {"system": "Staphylococcus aureus ATCC 29213"}, "[10]": {"system": "Staphylococcus aureus ATCC 43300"}, "[11]": {"system": "Enterococcus faecium ATCC 35667"}, "[12]": {"system": "Bacillus subtilis ATCC 6051"}, "[13]": {"system": "Candida tropicalis ATCC 750"}, "[14]": {"system": "Staphylococcus aureus VRSA1"}, "[15]": {"system": "Cryptococcus neoformans ATCC 208821"}, "[16]": {"system": "Aspergillus flavus KCTC 6905"}, "[17]": {"system": "Aspergillus fumigatus KCTC 6145"}, "[18]": {"system": "Candida tropicalis KCTC 7221"}, "[19]": {"system": "Candida parapsilosis CCARM 14016"}, "[20]": {"system": "Candida krusei CCARM 14017"}, "[21]": {"system": "Fusarium verticillioides KCTC 6149"}, "[22]": {"system": "Trichosporon beigelii KCTC 7707"}, "[23]": {"system": "Acinetobacter baumannii ATCC 7978"}, "[24]": {"system": "Enterococcus faecium E007"}, "[25]": {"system": "Staphylococcus aureus ATCC 29231"}, "[26]": {"system": "Klebsiella pneumoniae WGLW2"}, "[27]": {"system": "Staphylococcus aureus MW2"}, "Aeromonas veronii CL0901": {"system": "Aeromonas veronii CL0901"}, "[28]": {"system": "Staphylococcus aureus ATCC 25923"}, "[29]": {"system": "Salmonella enterica subsp. enterica serovar Pullorum CVCC 533"}, "[30]": {"system": "Escherichia coli CVCC 1515"}, "[31]": {"system": "Escherichia coli CVCC 195"}, "[32]": {"system": "Salmonella enterica subsp. enterica serovar Enteritidis CVCC 3377"}, "[33]": {"system": "Salmonella enterica subsp. enterica serovar Typhimurium ATCC 14028"}, "[34]": {"system": "Escherichia coli CVCC O157"}, "[35]": {"system": "Salmonella enterica subsp. enterica serovar Pullorum CVCC 1809"}, "Staphylococcus hyicus": {"system": "Staphylococcus hyicus"}, "[36]": {"system": "Candida albicans CMCC 98001"}, "[37]": {"system": "Aeromonas veronii ATCC 35624"}, "[38]": {"system": "Aeromonas veronii X-1-06909"}, "[39]": {"system": "Staphylococcus hyicus NCTC 10350"}, "[40]": {"system": "Escherichia coli CVCC 25922"}, "[41]": {"system": "Salmonella enterica subsp. enterica serovar Pullorum CVCC 1789"}, "[42]": {"system": "Staphylococcus aureus ATCC 546"}, "[43]": {"system": "Pseudomonas aeruginosa CICC 21630"}}, "note": "Where “and” joins values, the source holds several entries; their conditions need not be identical. Equal entries are not always repeated."}
{"compound": "CC[C@H](C)[C@H](NC(=O)[C@H](C)NC(=O)[C@H](CCCCN)NC(=O)CNC(=O)[C@H](C)NC(=O)[C@H](CO)NC(=O)[C@H](Cc1ccccc1)NC(=O)[C@H](CC(C)C)NC(=O)CNC(=O)CNC(=O)[C@@H](NC(=O)[C@@H](NC(=O)[C@H](Cc1cnc[nH]1)NC(=O)[C@H](Cc1cnc[nH]1)NC(=O)[C@@H](NC(=O)[C@@H](N)Cc1ccccc1)[C@@H](C)CC)[C@@H](C)CC)[C@@H](C)CC)C(=O)N[C@@H](Cc1cnc[nH]1)C(=O)N[C@@H](CCCN=C(N)N)C(=O)N[C@@H](Cc1cnc[nH]1)C(=O)N[C@@H](Cc1cnc[nH]1)C(=O)N[C@@H](CCCN=C(N)N)C(=O)N[C@@H](CCCN=C(N)N)C(=O)N[C@@H](CCCN=C(N)N)C(=O)N[C@@H](CCCN=C(N)N)C(=O)N[C@@H](CCCN=C(N)N)C(=O)O", "note": "[FIHHIIGGLFSAGKAIHRHHRRRRR]", "values": [{"measurement": "MIC", "setting": "[1]", "value": 84.5, "unit": "µM"}, {"measurement": "MIC", "setting": "Candida albicans", "value": 42.3, "unit": "µM"}, {"measurement": "MIC", "setting": "[2]", "value": "≥ 42.3", "unit": "µM"}, {"measurement": "MIC", "setting": "Staphylococcus aureus MR", "value": "≥ 169", "unit": "µM"}]}
{"compound": "CC[C@H](C)[C@H](N)C(=O)N[C@@H](Cc1ccccc1)C(=O)N[C@@H](Cc1c[nH]c2ccccc12)C(=O)N[C@@H](CC(C)C)C(=O)N[C@@H](Cc1ccccc1)C(=O)N[C@@H](CCCN=C(N)N)C(=O)NCC(=O)N[C@@H](CCCCN)C(=O)N[C@@H](C)C(=O)N[C@@H](CC(=O)O)C(=O)N[C@H](C(=O)N[C@@H](C)C(=O)N[C@@H](CC(C)C)C(N)=O)C(C)C", "note": "[IFWLFRGKADVAL]", "values": [{"measurement": "MIC", "setting": "[1]", "value": "> 167", "unit": "µM"}, {"measurement": "MIC", "setting": "[3]", "value": "≥ 83.3", "unit": "µM"}, {"measurement": "MIC", "setting": "[4]", "value": "> 167", "unit": "µM"}, {"measurement": "MIC", "setting": "[5]", "value": "≥ 83.3", "unit": "µM"}, {"measurement": "MIC", "setting": "[6]", "value": 29.5, "unit": "µM"}, {"measurement": "MIC", "setting": "[7]", "value": "> 167", "unit": "µM"}, {"measurement": "MIC", "setting": "[8]", "value": "> 167", "unit": "µM"}, {"measurement": "MIC", "setting": "[9]", "value": "> 83.3", "unit": "µM"}, {"measurement": "MIC", "setting": "[10]", "value": "> 83.3", "unit": "µM"}, {"measurement": "MIC", "setting": "[11]", "value": "≥ 41.7", "unit": "µM"}, {"measurement": "MIC", "setting": "[12]", "value": "≥ 41.7", "unit": "µM"}, {"measurement": "MIC", "setting": "[13]", "value": "≥ 83.3", "unit": "µM"}, {"measurement": "MIC", "setting": "[14]", "value": "≥ 83.3", "unit": "µM"}, {"measurement": "MIC", "setting": "[15]", "value": 14.7, "unit": "µM"}]}
{"compound": "CC[C@H](C)[C@H](NC(=O)CNC(=O)[C@H](CCC(N)=O)NC(=O)[C@H](C)NC(=O)[C@@H](NC(=O)[C@H](CCCCN)NC(=O)[C@H](CCCCN)NC(=O)[C@H](CC(C)C)NC(=O)[C@H](C)NC(=O)[C@H](CC(N)=O)NC(=O)[C@H](C)NC(=O)CN)C(C)C)C(=O)N[C@@H](Cc1cnc[nH]1)C(=O)N[C@@H](CCC(=O)O)C(=O)N[C@@H](C)C(=O)N[C@H](C(=O)N[C@@H](CCCCN)C(=O)N[C@@H](CC(C)C)C(=O)N[C@H](C(=O)N[C@@H](CC(N)=O)C(=O)N[C@@H](CC(N)=O)C(=O)N[C@@H](Cc1cnc[nH]1)C(=O)N[C@H](C(=O)N[C@@H](CCC(N)=O)C(N)=O)C(C)C)[C@@H](C)CC)[C@@H](C)CC", "note": "[GANALKKVAQGIHEAIKLINNHVQ]", "values": [{"measurement": "MIC", "setting": "[16]", "value": "≥ 32 µM and 12 µM"}, {"measurement": "MIC", "setting": "[17]", "value": "24 µM and 16 µM"}, {"measurement": "MIC", "setting": "[18]", "value": "2 µM and 1.5 µM"}, {"measurement": "MIC", "setting": "[19]", "value": "≥ 64", "unit": "µM"}, {"measurement": "MIC", "setting": "[20]", "value": "6 µM and 4 µM"}, {"measurement": "MIC", "setting": "[21]", "value": "24 µM and 16 µM"}, {"measurement": "MIC", "setting": "[22]", "value": 2, "unit": "µM"}]}
{"compound": "CC[C@H](C)[C@H](NC(=O)[C@H](CCCCN)NC(=O)[C@H](CCCCN)NC(=O)[C@H](CC(C)C)NC(=O)[C@@H](NC(=O)[C@H](CCCCN)NC(=O)[C@H](Cc1c[nH]c2ccccc12)NC(=O)[C@@H](N)CC(C)C)[C@@H](C)CC)C(=O)N[C@@H](Cc1c[nH]c2ccccc12)C(=O)N[C@@H](CCCN=C(N)N)C(=O)N[C@H](C(=O)N[C@@H](CC(C)C)C(=O)N[C@@H](CCCCN)C(=O)N[C@@H](CC(N)=O)C(=O)N[C@@H](Cc1c[nH]c2ccccc12)C(=O)N[C@@H](CCCN=C(N)N)C(=O)O)C(C)C", "note": "[LWKILKKIWRVLKNWR]", "values": [{"measurement": "MIC", "setting": "[23]", "value": "≥ 58.7", "unit": "µM"}, {"measurement": "MIC", "setting": "[24]", "value": "≥ 58.7", "unit": "µM"}, {"measurement": "MIC", "setting": "[25]", "value": 14.7, "unit": "µM"}, {"measurement": "MIC", "setting": "[26]", "value": 29.4, "unit": "µM"}, {"measurement": "MIC", "setting": "[27]", "value": 14.7, "unit": "µM"}]}
{"compound": "CC(C)[C@H](N)C(=O)N[C@@H](Cc1ccccc1)C(=O)N[C@@H](C)C(=O)N[C@@H](Cc1c[nH]c2ccccc12)C(=O)N[C@@H](CC(N)=O)C(=O)N[C@H](C(=O)N[C@H]1CSSC[C@@H](C(=O)N[C@@H](Cc2cnc[nH]2)C(=O)N[C@@H](CCCN=C(N)N)C(=O)N[C@@H](CCCN=C(N)N)C(=O)N[C@@H](C)C(=O)N[C@@H](CC(N)=O)C(N)=O)NC(=O)[C@H](C(C)C)NC(=O)[C@H](CCCN=C(N)N)NC(=O)[C@H](C(C)C)NC(=O)[C@H](C(C)C)NC(=O)[C@H](CC(N)=O)NC(=O)[C@H](CCCN=C(N)N)NC(=O)[C@H](Cc2ccc(O)cc2)NC(=O)[C@H](C(C)C)NC1=O)C(C)C", "note": "[VFAWNVCVYRNVVRVCHRRAN]", "values": [{"measurement": "MIC", "setting": "Aeromonas veronii CL0901", "value": 12.5, "unit": "µM"}, {"measurement": "MIC", "setting": "[28]", "value": 12.5, "unit": "µM"}, {"measurement": "MIC", "setting": "[29]", "value": 6.25, "unit": "µM"}, {"measurement": "MIC", "setting": "[30]", "value": 1.56, "unit": "µM"}, {"measurement": "MIC", "setting": "[31]", "value": 3.12, "unit": "µM"}, {"measurement": "MIC", "setting": "[32]", "value": 0.781, "unit": "µM"}, {"measurement": "MIC", "setting": "[33]", "value": 6.25, "unit": "µM"}, {"measurement": "MIC", "setting": "[34]", "value": 3.12, "unit": "µM"}, {"measurement": "MIC", "setting": "[35]", "value": 3.12, "unit": "µM"}, {"measurement": "MIC", "setting": "Staphylococcus hyicus", "value": 12.5, "unit": "µM"}, {"measurement": "MIC", "setting": "[36]", "value": "≥ 50", "unit": "µM"}, {"measurement": "MIC", "setting": "[37]", "value": 6.25, "unit": "µM"}, {"measurement": "MIC", "setting": "[38]", "value": 12.5, "unit": "µM"}, {"measurement": "MIC", "setting": "[39]", "value": 25, "unit": "µM"}, {"measurement": "MIC", "setting": "[10]", "value": 12.5, "unit": "µM"}, {"measurement": "MIC", "setting": "[40]", "value": 3.12, "unit": "µM"}, {"measurement": "MIC", "setting": "[41]", "value": 6.25, "unit": "µM"}, {"measurement": "MIC", "setting": "[42]", "value": 6.25, "unit": "µM"}, {"measurement": "MIC", "setting": "[43]", "value": 12.5, "unit": "µM"}]}
